Source: the supplement of paper PMC6045584
± gives the standard deviation of the averaged measurements.

Compound: COCC[n+]1c2c(n(Cc3cnccn3)c1C)C(=O)c1ccccc1C2=O [YM155]
Assay: surviving fraction relative to DMSO-only wells; higher = less growth inhibition
Details: 0.5 nM; exposure time: 5 days
Method in brief: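 Tumour cell lines in log phase were plated in 384-well plates at 250–500 cells per well, then, after 24 hours, exposed continuously for five days to inhibitors at 0.5, 1, 5, 10, 50, 100, 500 and 1000 nM. Viability came from CellTiter-Glo luminescence, and surviving fraction is that signal normalised to the median of DMSO-only wells. Plates were read after 10 minutes at room temperature, and each line, screened three times, was kept only when replicate Pearson r was >0.7 and median Z' was >0.3.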

Question: For HSSYII SYNOVIAL, which surviving fraction is on record?
Answer: 0.876 ± 0.058

Question: With MG63 BONE as the test system, how does the surviving fraction read?
Answer: 0.978 ± 0.036

Question: For HS57T BREAST, which surviving fraction is on record?
Answer: 0.919 ± 0.02

Question: SUM159 BREAST was tested. Which surviving fraction did it give?
Answer: 0.994 ± 0.042

Question: How did the surviving fraction turn out when HCC1395 BREAST was run?
Answer: 0.883 ± 0.23

Question: Which surviving fraction does the source give for SUM149.B1*.S BREAST here?
Answer: 0.847 ± 0.051

Question: With MDAMB453 BREAST as the test system, how does the surviving fraction read?
Answer: 0.989 ± 0.048

Question: How did the surviving fraction turn out when SCC90 HEADNECK was run?
Answer: 0.914 ± 0.097

Question: HMLE3 BREAST was tested. Which surviving fraction did it give?
Answer: 0.974 ± 0.062

Question: Which surviving fraction does the source give for HCC70 BREAST here?
Answer: 1.09 ± 0.1

Question: With LNCAP PROSTATE as the test system, how does the surviving fraction read?
Answer: 0.92 ± 0.085

Question: With HCT15 LARGE INTESTINE as the test system, how does the surviving fraction read?
Answer: 0.916 ± 0.056

Question: With MHM BONE as the test system, how does the surviving fraction read?
Answer: 0.972 ± 0.013

Question: Which surviving fraction does the source give for VCAP PROSTATE here?
Answer: 0.826 ± 0.049

Same assay, conditions: 1 nM; exposure time: 5 days

Question: HSSYII SYNOVIAL was tested. Which surviving fraction did it give?
Answer: 0.843 ± 0.014

Question: How did the surviving fraction turn out when MG63 BONE was run?
Answer: 1.04 ± 0.057

Question: How did the surviving fraction turn out when HS57T BREAST was run?
Answer: 0.923 ± 0.056

Question: With SUM159 BREAST as the test system, how does the surviving fraction read?
Answer: 1.02 ± 0.032

Question: HCC1395 BREAST was tested. Which surviving fraction did it give?
Answer: 1.07 ± 0.031

Question: With SUM149.B1*.S BREAST as the test system, how does the surviving fraction read?
Answer: 1.02 ± 0.068

Question: How did the surviving fraction turn out when MDAMB453 BREAST was run?
Answer: 0.949 ± 0.089

Question: How did the surviving fraction turn out when SCC90 HEADNECK was run?
Answer: 0.937 ± 0.021

Question: Which surviving fraction does the source give for HMLE3 BREAST here?
Answer: 1.06 ± 0.15

Question: With HCC70 BREAST as the test system, how does the surviving fraction read?
Answer: 1.04 ± 0.11

Question: How did the surviving fraction turn out when LNCAP PROSTATE was run?
Answer: 0.943 ± 0.033

Question: HCT15 LARGE INTESTINE was tested. Which surviving fraction did it give?
Answer: 1.01 ± 0.051

Question: Which surviving fraction does the source give for MHM BONE here?
Answer: 0.998 ± 0.021

Question: With VCAP PROSTATE as the test system, how does the surviving fraction read?
Answer: 0.9053 ± 0.0074

Same assay, conditions: 5 nM; exposure time: 5 days

Question: HSSYII SYNOVIAL was tested. Which surviving fraction did it give?
Answer: 0.199 ± 0.0066

Question: With MG63 BONE as the test system, how does the surviving fraction read?
Answer: 0.783 ± 0.048

Question: HS57T BREAST was tested. Which surviving fraction did it give?
Answer: 0.729 ± 0.058

Question: How did the surviving fraction turn out when SUM159 BREAST was run?
Answer: 0.536 ± 0.072

Question: HCC1395 BREAST was tested. Which surviving fraction did it give?
Answer: 1.15 ± 0.035

Question: How did the surviving fraction turn out when SUM149.B1*.S BREAST was run?
Answer: 0.903 ± 0.068

Question: How did the surviving fraction turn out when MDAMB453 BREAST was run?
Answer: 0.306 ± 0.021

Question: SCC90 HEADNECK was tested. Which surviving fraction did it give?
Answer: 1.08 ± 0.1

Question: How did the surviving fraction turn out when HMLE3 BREAST was run?
Answer: 0.425 ± 0.072

Question: HCC70 BREAST was tested. Which surviving fraction did it give?
Answer: 1.01 ± 0.11

Question: LNCAP PROSTATE was tested. Which surviving fraction did it give?
Answer: 0.87 ± 0.097

Question: With HCT15 LARGE INTESTINE as the test system, how does the surviving fraction read?
Answer: 0.975 ± 0.017

Question: For MHM BONE, which surviving fraction is on record?
Answer: 1.01 ± 0.011

Question: VCAP PROSTATE was tested. Which surviving fraction did it give?
Answer: 0.34 ± 0.025

Same assay, conditions: 10 nM; exposure time: 5 days

Question: Which surviving fraction does the source give for HSSYII SYNOVIAL here?
Answer: 0.0977 ± 0.011

Question: With MG63 BONE as the test system, how does the surviving fraction read?
Answer: 0.659 ± 0.026

Question: How did the surviving fraction turn out when HS57T BREAST was run?
Answer: 0.799 ± 0.1

Question: For SUM159 BREAST, which surviving fraction is on record?
Answer: 0.537 ± 0.057

Question: How did the surviving fraction turn out when HCC1395 BREAST was run?
Answer: 1.01 ± 0.056

Question: With SUM149.B1*.S BREAST as the test system, how does the surviving fraction read?
Answer: 0.583 ± 0.058

Question: Which surviving fraction does the source give for MDAMB453 BREAST here?
Answer: 0.2993 ± 0.0025

Question: For SCC90 HEADNECK, which surviving fraction is on record?
Answer: 1.1 ± 0.037

Question: With HMLE3 BREAST as the test system, how does the surviving fraction read?
Answer: 0.129 ± 0.02

Question: For HCC70 BREAST, which surviving fraction is on record?
Answer: 0.934 ± 0.069

Question: LNCAP PROSTATE was tested. Which surviving fraction did it give?
Answer: 0.978 ± 0.1

Question: With HCT15 LARGE INTESTINE as the test system, how does the surviving fraction read?
Answer: 0.974 ± 0.029

Question: Which surviving fraction does the source give for MHM BONE here?
Answer: 1.05 ± 0.016

Question: For VCAP PROSTATE, which surviving fraction is on record?
Answer: 0.286 ± 0.051

Same assay, conditions: 50 nM; exposure time: 5 days

Question: For HSSYII SYNOVIAL, which surviving fraction is on record?
Answer: 0.0352 ± 0.004

Question: Which surviving fraction does the source give for MG63 BONE here?
Answer: 0.0477 ± 0.0021

Question: How did the surviving fraction turn out when HS57T BREAST was run?
Answer: 0.287 ± 0.029

Question: Which surviving fraction does the source give for SUM159 BREAST here?
Answer: 0.069 ± 0.0098

Question: How did the surviving fraction turn out when HCC1395 BREAST was run?
Answer: 0.733 ± 0.11

Question: How did the surviving fraction turn out when SUM149.B1*.S BREAST was run?
Answer: 0.0738 ± 0.0063

Question: How did the surviving fraction turn out when MDAMB453 BREAST was run?
Answer: 0.11 ± 0.0085

Question: With SCC90 HEADNECK as the test system, how does the surviving fraction read?
Answer: 0.676 ± 0.085

Question: Which surviving fraction does the source give for HMLE3 BREAST here?
Answer: 0.0257 ± 0.00058

Question: Which surviving fraction does the source give for HCC70 BREAST here?
Answer: 0.632 ± 0.049

Question: With LNCAP PROSTATE as the test system, how does the surviving fraction read?
Answer: 0.227 ± 0.032

Question: For HCT15 LARGE INTESTINE, which surviving fraction is on record?
Answer: 0.467 ± 0.028

Question: How did the surviving fraction turn out when MHM BONE was run?
Answer: 0.299 ± 0.013

Question: With VCAP PROSTATE as the test system, how does the surviving fraction read?
Answer: 0.0533 ± 0.027

Same assay, conditions: 100 nM; exposure time: 5 days

Question: How did the surviving fraction turn out when HSSYII SYNOVIAL was run?
Answer: 0.027 ± 0.0035

Question: With MG63 BONE as the test system, how does the surviving fraction read?
Answer: 0.0237 ± 0.0015

Question: With HS57T BREAST as the test system, how does the surviving fraction read?
Answer: 0.182 ± 0.013

Question: For SUM159 BREAST, which surviving fraction is on record?
Answer: 0.0383 ± 0.0015

Question: For HCC1395 BREAST, which surviving fraction is on record?
Answer: 0.427 ± 0.12

Question: Which surviving fraction does the source give for SUM149.B1*.S BREAST here?
Answer: 0.0278 ± 0.0019

Question: Which surviving fraction does the source give for MDAMB453 BREAST here?
Answer: 0.0773 ± 0.014

Question: Which surviving fraction does the source give for SCC90 HEADNECK here?
Answer: 0.276 ± 0.039

Question: For HMLE3 BREAST, which surviving fraction is on record?
Answer: 0.0227 ± 0.00058

Question: HCC70 BREAST was tested. Which surviving fraction did it give?
Answer: 0.515 ± 0.044

Question: With LNCAP PROSTATE as the test system, how does the surviving fraction read?
Answer: 0.069 ± 0.0044

Question: HCT15 LARGE INTESTINE was tested. Which surviving fraction did it give?
Answer: 0.185 ± 0.029

Question: For MHM BONE, which surviving fraction is on record?
Answer: 0.202 ± 0.0085

Question: For VCAP PROSTATE, which surviving fraction is on record?
Answer: 0.035 ± 0.007

Same assay, conditions: 500 nM; exposure time: 5 days

Question: With HSSYII SYNOVIAL as the test system, how does the surviving fraction read?
Answer: 0.017 ± 0.0013

Question: Which surviving fraction does the source give for MG63 BONE here?
Answer: 0.021 ± 0.001

Question: With HS57T BREAST as the test system, how does the surviving fraction read?
Answer: 0.0527 ± 0.0015

Question: Which surviving fraction does the source give for SUM159 BREAST here?
Answer: 0.0217 ± 0.00058

Question: Which surviving fraction does the source give for HCC1395 BREAST here?
Answer: 0.278 ± 0.079

Question: Which surviving fraction does the source give for SUM149.B1*.S BREAST here?
Answer: 0.0225 ± 0.00087

Question: MDAMB453 BREAST was tested. Which surviving fraction did it give?
Answer: 0.0533 ± 0.0076

Question: Which surviving fraction does the source give for SCC90 HEADNECK here?
Answer: 0.0483 ± 0.0067

Question: Which surviving fraction does the source give for HMLE3 BREAST here?
Answer: 0.018 ± 0.001

Question: How did the surviving fraction turn out when HCC70 BREAST was run?
Answer: 0.135 ± 0.023

Question: How did the surviving fraction turn out when LNCAP PROSTATE was run?
Answer: 0.0267 ± 0.0055

Question: HCT15 LARGE INTESTINE was tested. Which surviving fraction did it give?
Answer: 0.061 ± 0.0027

Question: MHM BONE was tested. Which surviving fraction did it give?
Answer: 0.0287 ± 0.0011

Question: VCAP PROSTATE was tested. Which surviving fraction did it give?
Answer: 0.0293 ± 0.0067

Same assay, conditions: 1000 nM; exposure time: 5 days

Question: Which surviving fraction does the source give for HSSYII SYNOVIAL here?
Answer: 0.0215 ± 0.0017

Question: For MG63 BONE, which surviving fraction is on record?
Answer: 0.027 ± 0.0017

Question: For HS57T BREAST, which surviving fraction is on record?
Answer: 0.0473 ± 0.0047

Question: How did the surviving fraction turn out when SUM159 BREAST was run?
Answer: 0.0273 ± 0.00058

Question: For HCC1395 BREAST, which surviving fraction is on record?
Answer: 0.239 ± 0.065

Question: SUM149.B1*.S BREAST was tested. Which surviving fraction did it give?
Answer: 0.0277 ± 0.0011

Question: How did the surviving fraction turn out when MDAMB453 BREAST was run?
Answer: 0.057 ± 0.017

Question: Which surviving fraction does the source give for SCC90 HEADNECK here?
Answer: 0.0363 ± 0.0031

Question: Which surviving fraction does the source give for HMLE3 BREAST here?
Answer: 0.0213 ± 0.00058

Question: HCC70 BREAST was tested. Which surviving fraction did it give?
Answer: 0.068 ± 0.007

Question: With LNCAP PROSTATE as the test system, how does the surviving fraction read?
Answer: 0.0267 ± 0.0015

Question: How did the surviving fraction turn out when HCT15 LARGE INTESTINE was run?
Answer: 0.0557 ± 0.0031

Question: How did the surviving fraction turn out when MHM BONE was run?
Answer: 0.0323 ± 0.00058

Question: How did the surviving fraction turn out when VCAP PROSTATE was run?
Answer: 0.0617 ± 0.03
